Common to all, as to assay type: functional, Homo sapiens
Common to all, as to set-up: dose or concentration left out as unconfirmed

In assay [1] the test system is Colon cancer organoid. Put plainly: Image-based profiling of donated chemical probes and chemogenomic kinase set in O06 CRC organoid. Image analysis is performed on the sum area metric, and the data were normalized to the DMSO control. After imaging the organoid viability is measured using the OneGloEX Luciferase Assay System. The normalized viability data and sum area are reported.

Assay [2] has as its system Colon cancer organoid. Put plainly: Image-based profiling of donated chemical probes and chemogenomic kinase set in O21 CRC organoid. Image analysis is performed on the sum area metric, and the data were normalized to the DMSO control. After imaging the organoid viability is measured using the OneGloEX Luciferase Assay System. The normalized viability data and sum area are reported.

Assay [3] concerns Colon cancer organoid. Kind of assay: Image-based profiling of donated chemical probes and chemogenomic kinase set in O09 CRC organoid. Image analysis is performed on the sum area metric, and the data were normalized to the DMSO control. After imaging the organoid viability is measured using the OneGloEX Luciferase Assay System. The normalized viability data and sum area are reported.

Several values for one entry are separate records, joined by “and”; a condition that tells them apart may be missing. Equal entries are not always repeated.

In the case of `OCCn1cc(-c2ccc3c(c2)CCC3=NO)c(-c2ccncc2)n1`, the “Cell Viability” value with Colon cancer organoid [1] (Replication number 1) is 89.1031% and 90.5828%; with Colon cancer organoid [1] (Replication number 2), 141.492% and 108.175%; in the assay with Colon cancer organoid [2] (Replication number 1), 88.6835% and 115.401%; with Colon cancer organoid [2] (Replication number 2), 96.5689% and 114.574%; in the assay on Colon cancer organoid [3] (Replication number 1), 111.659% and 102.228%; in the assay on Colon cancer organoid [3] (Replication number 2), 89.8993% and 62.6286%.
`CC1=C(C)C(=O)C(C(C)(C)CC(=O)N(CCCCSC[C@H]2O[C@@H](n3cnc4c(N)ncnc43)[C@H](O)[C@@H]2O)Cc2cccc(-c3ccc(Cl)cc3)c2)=C(C)C1=O`: the “Cell Viability” value in the assay with Colon cancer organoid [1] (Replication number 1) is 167.397% and 142.309%; with Colon cancer organoid [1] (Replication number 2), 129.695% and 107.541%; in the assay on Colon cancer organoid [2] (Replication number 1), 85.391% and 116.982%; with Colon cancer organoid [2] (Replication number 2), 82.6503% and 80.5489%; with Colon cancer organoid [3] (Replication number 1) it was 154.166% and 104.56%; in the assay on Colon cancer organoid [3] (Replication number 2), 134.087% and 102.344%.
Turning to `CCOC(=O)c1c(/C(C#N)=C\N)c2ccc(Cl)c(Cl)c2n1C`, the “Cell Viability” value in the assay on Colon cancer organoid [1] (Replication number 1) was 68.8446% and 103.482%; in the assay with Colon cancer organoid [1] (Replication number 2), 89.5184% and 120.135%; in the assay on Colon cancer organoid [2] (Replication number 1), 124.932% and 127.137%; in the assay on Colon cancer organoid [2] (Replication number 2), 116.619% and 130.014%; with Colon cancer organoid [3] (Replication number 1), 79.2888% and 103.726%; with Colon cancer organoid [3] (Replication number 2) it was 80.6301% and 101.308%.
With `O=C(N[C@H]1CCCCC/C=C\C2C[C@@]2(C(=O)O)NC(=O)[C@@H]2C[C@@H](Oc3ccncc3)CN2C1=O)OC1CCCC1` (stereo partly drawn) [BI 1675], the “Cell Viability” value in the assay with Colon cancer organoid [1] (Replication number 1) is 69.4015% and 71.6628%; in the assay on Colon cancer organoid [1] (Replication number 2), 66.5819% and 62.7776%; in the assay on Colon cancer organoid [2] (Replication number 1), 85.4317% and 92.5614%; in the assay with Colon cancer organoid [2] (Replication number 2) it was 88.5187% and 94.3878%; in the assay on Colon cancer organoid [3] (Replication number 1) it was 116.319% and 81.4707%; in the assay with Colon cancer organoid [3] (Replication number 2) it was 190.904% and 132.895%.
With `Cc1c(C(=O)O)cc(-c2ccc(C3CCNCC3)cc2)c2ccc(-c3ccc(C(F)(F)F)cc3)cc12.Cl`, the “Cell Viability” value is 120.986% and 114.413% in the assay with Colon cancer organoid [1] (Replication number 1); 106.141% and 127.102% in the assay with Colon cancer organoid [1] (Replication number 2); 85.8075% and 94.398% with Colon cancer organoid [2] (Replication number 1); 96.6667% and 83.1067% in the assay on Colon cancer organoid [2] (Replication number 2); 120.061% and 98.4744% in the assay on Colon cancer organoid [3] (Replication number 1); 101.967% and 96.9469% in the assay with Colon cancer organoid [3] (Replication number 2).
Regarding `COc1ccccc1S(=O)(=O)Nc1ccc2c(c1)CN(C)C(=O)N2`, the “Cell Viability” value in the assay on Colon cancer organoid [1] (Replication number 1) is 152.206% and 125.879%; in the assay with Colon cancer organoid [1] (Replication number 2) it was 155.447% and 126.899%; in the assay with Colon cancer organoid [2] (Replication number 1), 64.6421% and 66.4272%; in the assay on Colon cancer organoid [2] (Replication number 2), 105.73% and 125.656%; with Colon cancer organoid [3] (Replication number 1), 91.3379% and 107.573%; with Colon cancer organoid [3] (Replication number 2), 93.4533% and 109.471%.
In the case of `C[C@@H](c1cccc(C#N)c1)n1cc(Cl)cc(C(N)=O)c1=N.Cl`, the “Cell Viability” value with Colon cancer organoid [1] (Replication number 1) was 94.9066% and 108.826%; with Colon cancer organoid [1] (Replication number 2) it was 100.434% and 114.368%; in the assay with Colon cancer organoid [2] (Replication number 1) it was 94.9994% and 100.946%; in the assay on Colon cancer organoid [2] (Replication number 2), 88.3604% and 82.5969%; in the assay on Colon cancer organoid [3] (Replication number 1), 93.1286% and 91.7219%; in the assay with Colon cancer organoid [3] (Replication number 2), 106.099% and 101.903%.
`O=C(NOC[C@H](O)CO)c1ccc(F)c(F)c1Nc1ccc(I)cc1F` [MIRDAMETINIB]: the “Cell Viability” value in the assay with Colon cancer organoid [1] (Replication number 1) was 3.1671% and 12.2187%; with Colon cancer organoid [1] (Replication number 2), 2.358% and 7.568%; in the assay with Colon cancer organoid [2] (Replication number 1), 22.725% and 32.892%; with Colon cancer organoid [2] (Replication number 2), 19.7018% and 35.9842%; in the assay on Colon cancer organoid [3] (Replication number 1), 6.019% and 17.678%; in the assay with Colon cancer organoid [3] (Replication number 2), 3.596% and 12.9307%.
Consider `Cn1c(C2(NC(=O)c3ccc4c(C5CCCC5)c(-c5ncc(Br)cn5)n(C)c4c3)CCC2)nc2ccc(/C=C/C(=O)O)cc21` [DELEOBUVIR], for which the “Cell Viability” value in the assay with Colon cancer organoid [1] (Replication number 1) is 72.8568% and 101.611%; in the assay with Colon cancer organoid [1] (Replication number 2), 116.691% and 122.099%; with Colon cancer organoid [2] (Replication number 1) it was 112.195% and 113.344%; in the assay on Colon cancer organoid [2] (Replication number 2), 113.774% and 112.777%; with Colon cancer organoid [3] (Replication number 1), 177.935% and 120.27%; with Colon cancer organoid [3] (Replication number 2), 86.2792% and 92.0585%.
For `CNCc1ccccc1-c1csc([C@@H](C)Nc2nc(C)nc3cc(OC)c(OC)cc23)c1` [BAY-293], the “Cell Viability” value in the assay on Colon cancer organoid [1] (Replication number 2) was 9.059% and 19.7098%; in the assay with Colon cancer organoid [2] (Replication number 1), 45.2566% and 84.9935%; with Colon cancer organoid [2] (Replication number 2), 50.5698% and 76.0204%; in the assay with Colon cancer organoid [3] (Replication number 1), 109.186% and 103.451%; in the assay with Colon cancer organoid [3] (Replication number 2), 63.3306% and 79.153%.
As for `C=CC(=O)Nc1ccc2[nH]c(=O)n(C3CCN(Cc4ccc(-c5nc6cc[nH]c(=O)c6cc5-c5ccccc5)cc4)CC3)c2c1` [Borussertib], the “Cell Viability” value in the assay on Colon cancer organoid [1] (Replication number 1) is 53.8202% and 93.0364%; in the assay with Colon cancer organoid [1] (Replication number 2), 55.5643% and 106.199%; in the assay with Colon cancer organoid [2] (Replication number 1), 72.0097% and 96.5806%; in the assay with Colon cancer organoid [2] (Replication number 2) it was 66.1245% and 78.518%; in the assay on Colon cancer organoid [3] (Replication number 1), 27.7912% and 48.9559%; in the assay with Colon cancer organoid [3] (Replication number 2), 42.376% and 51.9429%.
As to `COc1nc2ccc([C@@](O)(c3ccccc3)C3CCN(C(C)=O)CC3)cc2c(Cl)c1Cc1ccc(-n2cccn2)cc1` [JNJ-54119936], the “Cell Viability” value is 95.4238% and 127.913% in the assay with Colon cancer organoid [1] (Replication number 1); 99.5018% and 98.8422% with Colon cancer organoid [1] (Replication number 2); 91.3508% and 107.676% in the assay with Colon cancer organoid [2] (Replication number 1); 118.142% and 99.7424% in the assay on Colon cancer organoid [2] (Replication number 2); 195.654% and 100.967% in the assay with Colon cancer organoid [3] (Replication number 1); 202.641% and 113.341% in the assay with Colon cancer organoid [3] (Replication number 2).
Turning to `CNc1nc(Nc2cnn([C@H]3CCN(C4COC4)C[C@@H]3F)c2Cl)ncc1C(F)(F)F`, the “Cell Viability” value was 126.64% and 127.973% with Colon cancer organoid [1] (Replication number 1); 90.3478% and 106.324% in the assay with Colon cancer organoid [1] (Replication number 2); 107.524% and 121.533% in the assay with Colon cancer organoid [2] (Replication number 1); 104.61% and 94.4225% with Colon cancer organoid [2] (Replication number 2); 95.686% and 93.751% with Colon cancer organoid [3] (Replication number 1); 102.903% and 81.5252% in the assay with Colon cancer organoid [3] (Replication number 2).
In the case of `Cc1noc([C@H]2C[C@@H](c3ccc(C(F)(F)F)cc3)CN(C(=O)N3CCS(=O)(=O)C3)C2)n1` [BAY-448], the “Cell Viability” value in the assay with Colon cancer organoid [1] (Replication number 1) was 117.281% and 106.792%; in the assay with Colon cancer organoid [1] (Replication number 2), 86.8627% and 94.2849%; in the assay with Colon cancer organoid [2] (Replication number 1), 88.3285% and 80.3363%; in the assay on Colon cancer organoid [2] (Replication number 2), 88.286% and 95.9184%; with Colon cancer organoid [3] (Replication number 1), 144.748% and 117.786%; in the assay on Colon cancer organoid [3] (Replication number 2), 135.729% and 111.574%.
Regarding `CSc1cccnc1N1CCN(Cc2nc3ccccc3[nH]2)CC1` [A-769], the “Cell Viability” value in the assay with Colon cancer organoid [1] (Replication number 1) is 94.9192% and 98.1265%; with Colon cancer organoid [1] (Replication number 2), 78.7963% and 95.9431%; with Colon cancer organoid [2] (Replication number 1), 84.3952% and 76.2613%; in the assay on Colon cancer organoid [2] (Replication number 2), 99.9235% and 83.6735%; in the assay with Colon cancer organoid [3] (Replication number 1), 134.459% and 96.2835%; in the assay on Colon cancer organoid [3] (Replication number 2) it was 149.547% and 115.371%.
Take `CCNC(=O)c1cc2c(-c3cc(C(C)(C)O)ccc3Oc3c(C)cc(F)cc3C)cn(C)c(=O)c2[nH]1` [ABBV-744]: the “Cell Viability” value in the assay with Colon cancer organoid [1] (Replication number 1) was 111.05% and 99.302%; in the assay on Colon cancer organoid [1] (Replication number 2) it was 81.1787% and 70.2602%; with Colon cancer organoid [2] (Replication number 1), 105.916% and 106.401%; in the assay on Colon cancer organoid [2] (Replication number 2), 102.084% and 111.158%; in the assay on Colon cancer organoid [3] (Replication number 1), 57.6147% and 40.8037%; with Colon cancer organoid [3] (Replication number 2), 73.5027% and 48.4637%.
As to `CCCOc1ccn2c(C(C)=O)cc(-c3cccc(OC)c3)c2c1`, the “Cell Viability” value in the assay with Colon cancer organoid [1] (Replication number 1) was 185.69% and 133.611%; in the assay with Colon cancer organoid [1] (Replication number 2), 217.677% and 137.175%; with Colon cancer organoid [2] (Replication number 1) it was 114.752% and 106.401%; with Colon cancer organoid [2] (Replication number 2), 123.226% and 102.029%; in the assay on Colon cancer organoid [3] (Replication number 1), 257.79% and 103.4%; in the assay on Colon cancer organoid [3] (Replication number 2), 158.474% and 115.458%.
As to `COc1cc(OC)cc(-c2noc(N3CCN(C)C4(CCN(c5ccnc(C)c5)CC4)C3)n2)c1`, the “Cell Viability” value was 99.0993% and 95.9195% in the assay on Colon cancer organoid [1] (Replication number 1); 203.392% and 146.256% in the assay on Colon cancer organoid [1] (Replication number 2); 102.094% and 140.496% with Colon cancer organoid [2] (Replication number 1); 79.0091% and 95.0477% in the assay on Colon cancer organoid [2] (Replication number 2); 147.791% and 90.4173% in the assay on Colon cancer organoid [3] (Replication number 1); 237.296% and 126.576% with Colon cancer organoid [3] (Replication number 2).
As to `CNCCN1CCC(c2cc(CN(C)C(=O)c3cccc(Oc4ccccc4)c3)ccn2)CC1`, the “Cell Viability” value was 160.666% and 144% with Colon cancer organoid [1] (Replication number 1); 179.321% and 118.056% in the assay on Colon cancer organoid [1] (Replication number 2); 118.858% and 106.989% in the assay with Colon cancer organoid [2] (Replication number 1); 108.266% and 112.768% in the assay on Colon cancer organoid [2] (Replication number 2); 65.766% and 84.3895% in the assay with Colon cancer organoid [3] (Replication number 1); 110.837% and 98.923% with Colon cancer organoid [3] (Replication number 2).

The values are drawn from ChEMBL document CHEMBL5724558, “Image-based profiling of drug vulnerabilities in CRC organoids” (2024).
